Laboratory results as given in paper PMC5509998, “Autotaxin–lysophosphatidic acid–LPA 3 signaling at the embryo‐epithelial boundary controls decidualization pathways” (The EMBO Journal, 2017).

Target: T1, autotaxin (ATX, ENPP2) (Mus musculus, UniProt Q9R1E6)
T1 construct: recombinant ATX; mouse ENPP proteins expressed in HEK293A cells (culture supernatants)
Experiment: colorimetric phosphodiesterase assay with p-nitrophenyl TMP as substrate
Assay type: biochemical

IC50: ~38 nM
Compound: CCCCCn1c(-c2ccc(C(=O)NCCN3CCOCC3)cc2)cc(=O)n2cc(-c3ccc(Cl)cc3)nc12 [S15-00826]
